Measured values published in PMC12185792, “Guanylate cyclase activity in moss: revisiting the role of ERECTA-like receptors” (Physiology and Molecular Biology of Plants, 2025).

T1: PpERL1 (Physcomitrium patens ERECTA-like receptor 1) (Physcomitrium patens, UniProt A0A2K1L2N0)
T1 construct: gene LOC112274326; intracellular fragment 658-1018 (kinase domain with embedded GC motif 877-893) of 1018 residues; N-terminal GST tag kept (pGEX-6P-2), about 66 kDa; E. coli BL21(DE3)pLysS
T1 sequence (A0A2K1L2N0 658-1018): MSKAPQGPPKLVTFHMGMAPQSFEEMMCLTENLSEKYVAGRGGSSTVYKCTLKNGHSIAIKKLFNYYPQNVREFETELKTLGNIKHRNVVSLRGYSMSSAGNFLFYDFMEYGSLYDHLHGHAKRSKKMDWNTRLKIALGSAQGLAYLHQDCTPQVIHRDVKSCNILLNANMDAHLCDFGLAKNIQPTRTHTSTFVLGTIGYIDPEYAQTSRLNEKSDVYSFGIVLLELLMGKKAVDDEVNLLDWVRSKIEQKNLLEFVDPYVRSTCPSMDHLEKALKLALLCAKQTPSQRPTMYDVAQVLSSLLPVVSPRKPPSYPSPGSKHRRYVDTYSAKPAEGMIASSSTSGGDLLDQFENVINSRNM

B1: PpERL1 (Physcomitrium patens ERECTA-like receptor 1) (Physcomitrium patens) (protein)
chain: T1 sequence (A0A2K1L2N0 658-1018)
notes: intracellular fragment 658-1018 (kinase domain with embedded GC motif 877-893) of 1018 residues; N-terminal GST tag kept (pGEX-6P-2), about 66 kDa; E. coli BL21(DE3)pLysS

Experiments:
[1] = biological target: T2, PpERL1 (Physcomitrium patens ERECTA-like receptor 1) (Physcomitrium patens, UniProt A0A2K1L2N0, K890N); assay: Kinase-Glo Plus luminescent kinase assay, histone type III; format: biochemical; settings: 10 μM ATP, 5 mM MgCl2, 1 mM DTT, Tris-HCl pH 7.5, 30 °C; inhibition of kinase domain, possibly via GC domain
T2 construct: gene LOC112274326; intracellular fragment 658-1018 (kinase domain with embedded GC motif 877-893) of 1018 residues; N-terminal GST tag kept (pGEX-6P-2), about 66 kDa; E. coli BL21(DE3)pLysS

[2] = biological target: T1, PpERL1 (Physcomitrium patens ERECTA-like receptor 1); assay: as above; format: biochemical; settings: 10 μM ATP, 5 mM MgCl2, 1 mM DTT, Tris-HCl pH 7.5, 30 °C; inhibition of kinase domain, possibly via GC domain
[3] = substrate: Nc1nc2c(ncn2[C@@H]2O[C@H](COP(=O)(O)OP(=O)(O)OP(=O)(O)O)[C@@H](O)[C@H]2O)c(=O)[nH]1; assay: guanylate cyclase assay, cGMP by LC-MS/MS; format: biochemical, Physcomitrium patens; settings: GTP 0.1-3 mM, 5 mM MgCl2, 2.5 mM MnCl2, 1 mM DTT, Tris-HCl pH 7.5, 30 °C, no CaCl2

T2 sequence (A0A2K1L2N0 entry or part of it K890N): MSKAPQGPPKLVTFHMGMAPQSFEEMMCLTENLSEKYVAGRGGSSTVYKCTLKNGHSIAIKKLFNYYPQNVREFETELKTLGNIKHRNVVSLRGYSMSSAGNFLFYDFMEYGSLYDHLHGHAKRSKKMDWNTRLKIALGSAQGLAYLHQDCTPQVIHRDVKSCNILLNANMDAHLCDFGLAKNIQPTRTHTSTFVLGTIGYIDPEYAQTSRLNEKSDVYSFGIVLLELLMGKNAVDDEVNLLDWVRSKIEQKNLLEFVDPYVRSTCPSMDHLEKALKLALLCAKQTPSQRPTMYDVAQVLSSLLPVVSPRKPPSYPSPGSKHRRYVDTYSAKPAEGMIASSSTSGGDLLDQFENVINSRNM

Row | Molecule | relative kinase activity at 1 mM GTP [1] | relative kinase activity at 1 mM GTP [2] | Km [3] [µM]
1 | Nc1nc2c(ncn2[C@@H]2O[C@H](COP(=O)(O)OP(=O)(O)OP(=O)(O)O)[C@@H](O)[C@H]2O)c(=O)[nH]1 [GTP] | the presence of GTP resulted in a slight decrease in kinase activity | adding GTP to the reaction mixture led to a significant decrease in kinase activity | –
2 | B1 | – | – | 609.8
